Assay results published in article PMC5516229 (2017).

How the values were obtained:
[1] = system: G1 (DNA, G4) AGGGTTAGGGTTAGGGTTAGGG; assay: UV/Vis titration; conditions: 10 mM Tris-HCl pH 7.04, 20 μM complex, apparent, per base pair
[2] = system: G2T1 (DNA, G4) AGGGTTAGGGTTAGGGTTAGGGTTAGGGTTAGGGTTAGGGTTAGGG; assay: UV/Vis titration; conditions: 10 mM Tris-HCl pH 7.04, 20 μM complex, apparent, per base pair
[3] = system: G1 (DNA, G4) AGGGTTAGGGTTAGGGTTAGGG; assay: CD melting, 295 nm; conditions: 100 mM NaCl, 10 mM Tris-HCl pH 7.04
[4] = system: G2T1 (DNA, G4) AGGGTTAGGGTTAGGGTTAGGGTTAGGGTTAGGGTTAGGGTTAGGG; assay: CD melting, 295 nm; conditions: 100 mM NaCl, 10 mM Tris-HCl pH 7.04, 2.5 μM DNA
[5] = system: G2T2 (DNA, G4) AGGGTTAGGGTTAGGGTTAGGGTTATTAGGGTTAGGGTTAGGGTTAGGG; assay: CD melting, 295 nm; conditions: 100 mM NaCl, 10 mM Tris-HCl pH 7.04
[6] = system: G2T4 (DNA, G4) AGGGTTAGGGTTAGGGTTAGGGTTATTATTATTAGGGTTAGGGTTAGGGTTAGGG; assay: CD melting, 295 nm; conditions: 100 mM NaCl, 10 mM Tris-HCl pH 7.04
[7] = system: G2T6 (DNA, G4) AGGGTTAGGGTTAGGGTTAGGGTTATTATTATTATTATTAGGGTTAGGGTTAGGGTTAGGG; assay: CD melting, 295 nm; conditions: 100 mM NaCl, 10 mM Tris-HCl pH 7.04
[8] = system: G2T1 (DNA, G4) AGGGTTAGGGTTAGGGTTAGGGTTAGGGTTAGGGTTAGGGTTAGGG; assay: native gel electrophoresis; conditions: 100 mM NaCl, 10 mM Tris-HCl pH 7.04, 8 μM DNA
[9] = system: Ap7 (DNA, G4, 2-aminopurine at 7) AGGGTTAGGGTTAGGGTTAGGGTTAGGGTTAGGGTTAGGGTTAGGG; assay: 2-aminopurine fluorescence quenching; conditions: 100 mM NaCl; 10 mM Tris-HCl pH 7.04, 25 °C; 5 μM DNA
[10] = system: Ap13 (DNA, G4, 2-aminopurine at 13) AGGGTTAGGGTTAGGGTTAGGGTTAGGGTTAGGGTTAGGGTTAGGG; assay: 2-aminopurine fluorescence quenching; conditions: 100 mM NaCl; 10 mM Tris-HCl pH 7.04, 25 °C; 5 μM DNA
[11] = system: Ap37 (DNA, G4, 2-aminopurine at 37) AGGGTTAGGGTTAGGGTTAGGGTTAGGGTTAGGGTTAGGGTTAGGG; assay: 2-aminopurine fluorescence quenching; conditions: 100 mM NaCl; 10 mM Tris-HCl pH 7.04, 25 °C; 5 μM DNA
[12] = system: Ap7+Ap31 (DNA, G4, 2-aminopurine at 7 and 31) AGGGTTAGGGTTAGGGTTAGGGTTAGGGTTAGGGTTAGGGTTAGGG; assay: 2-aminopurine fluorescence quenching; conditions: 100 mM NaCl; 10 mM Tris-HCl pH 7.04, 25 °C; 5 μM DNA
[13] = system: Ap13+Ap37 (DNA, G4, 2-aminopurine at 13 and 37) AGGGTTAGGGTTAGGGTTAGGGTTAGGGTTAGGGTTAGGGTTAGGG; assay: 2-aminopurine fluorescence quenching; conditions: 100 mM NaCl; 10 mM Tris-HCl pH 7.04, 25 °C; 5 μM DNA
[14] = system: Ap31 (DNA, G4, 2-aminopurine at 31) AGGGTTAGGGTTAGGGTTAGGGTTAGGGTTAGGGTTAGGGTTAGGG; assay: 2-aminopurine fluorescence quenching and Job's plot; conditions: 100 mM NaCl; 10 mM Tris-HCl pH 7.04, 25 °C; Job's plot at 3 μM total
[15] = system: G1 (DNA, G4) AGGGTTAGGGTTAGGGTTAGGG; assay: native gel electrophoresis; conditions: 100 mM NaCl; 10 mM Tris-HCl pH 7.04; 16 μM DNA, 32 μM complex
[16] = 2:1 complex per G-quadruplex unit (4:1 per strand)

[Ni+2].[Ni+2].[O-]c1cc(OCCN2CCCCC2)ccc1C=Nc1ccc(OCCOCCOCCOCCOc2ccc(N=Cc3ccc(OCCN4CCCCC4)cc3[O-])c(N=Cc3ccc(OCCN4CCCCC4)cc3[O-])c2)cc1N=Cc1ccc(OCCN2CCCCC2)cc1[O-]
Ka ([1]; 100 mM KCl, 370 nm): 2.19±0.32×10^6 M^-1
Ka ([1]; 100 mM NaCl, 370 nm): 1.05±0.20×10^6 M^−1
Ka ([2]; 100 mM KCl, 370 nm): 1.37±0.25×10^7 M^-1
Ka ([2]; 100 mM NaCl, 370 nm): 3.15±0.42×10^7 M^−1
Δ T m ([3]; complex:DNA 1:1): 2.0 °C
Δ T m ([4]; 5 μM complex (2:1)): 14.1 °C
Δ T m ([5]; complex:DNA 2:1): 11.9 °C
Δ T m ([6]; complex:DNA 2:1): 8.1 °C
Δ T m ([7]; complex:DNA 2:1): 6.3 °C
binding ([8]; 16 μM complex): yes
binding [9]: yes
binding [10]: yes
binding [11]: yes
binding [12]: yes
binding [13]: yes
binding [14]: yes

[Ni+2].[Ni+2].[O-]c1cc(OCCN2CCCCC2)ccc1C=Nc1ccc(OCCOCCOCCOc2ccc(N=Cc3ccc(OCCN4CCCCC4)cc3[O-])c(N=Cc3ccc(OCCN4CCCCC4)cc3[O-])c2)cc1N=Cc1ccc(OCCN2CCCCC2)cc1[O-]
Ka ([1]; 100 mM KCl, 310 nm): 3.53±0.33×10^6 M^-1
Ka ([1]; 100 mM NaCl, 310 nm): 8.30±0.75×10^5 M^−1
Ka ([2]; 100 mM KCl, 310 nm): 2.52±0.24×10^6 M^-1
Ka ([2]; 100 mM NaCl, 310 nm): 2.06±0.40×10^6 M^−1
Δ T m ([4]; 5 μM complex (2:1)): 8.4 °C

[Ni+2].[Ni+2].[O-]c1cc(OCCN2CCCCC2)ccc1C=Nc1ccc(OCCOCCOc2ccc(N=Cc3ccc(OCCN4CCCCC4)cc3[O-])c(N=Cc3ccc(OCCN4CCCCC4)cc3[O-])c2)cc1N=Cc1ccc(OCCN2CCCCC2)cc1[O-]
Ka ([1]; 100 mM KCl, 310 nm): 2.39±0.35×10^6 M^-1
Ka ([1]; 100 mM NaCl, 370 nm): 1.27±0.24×10^6 M^−1
Ka ([2]; 100 mM KCl, 310 nm): 1.19±0.16×10^6 M^-1
Ka ([2]; 100 mM NaCl, 310 nm): 1.08±0.24×10^6 M^−1
Δ T m ([4]; 5 μM complex (2:1)): 7.7 °C

[Ni+2].[O-]c1cc(OCCN2CCCCC2)ccc1C=Nc1ccccc1N=Cc1ccc(OCCN2CCCCC2)cc1[O-]
Ka ([1]; 100 mM KCl, 370 nm): 1.15±0.18×10^7 M^-1
Ka ([1]; 100 mM NaCl, 370 nm): 4.62±0.64×10^6 M^−1
Ka ([2]; 100 mM KCl, 310 nm): 1.50±0.22×10^7 M^-1
Ka ([2]; 100 mM NaCl, 310 nm): 2.34±0.32×10^7 M^−1
Δ T m ([3]; complex:DNA 2:1): 13.4 °C
Δ T m ([4]; 10 μM complex (4:1)): 20.8 °C
Δ T m [5, 16]: 25.1 °C
Δ T m [6, 16]: 25.5 °C
Δ T m [7, 16]: 23.5 °C
binding [15]: yes
binding ([8]; 32 μM complex): yes
